Assay results as given in patent US20060264371A1, “Treatment” (Proximagen Ltd., priority 2005, published 2006).
“Also recorded” adds a separate entry of the source.

Experiments:
Type in all cases: cell-based, rat
[1] = test system: TH positive cells in primary ventral mesencephalic cell cultures; test: MPP+ dose response on TH positive cell number in primary ventral mesencephalic cell cultures; conditions: 24 hrs exposure, 0.1-10 μM MPP+, n=3; read-out: EC50, TH positive (dopaminergic) cell death
Protocol: (§1) Primary ventral mesencephalic cell cultures: Primary cell cultures were prepared by dissecting out the ventral mesencephalon from E14 rat foetuses. The dissected tissue was pooled and incubated with 0.1% Trypsin solution. This solution was then removed and replaced with Dulbecco's modified Eagles medium (DMEM) containing 10% foetal bovine serum (FBS) and 0.25% penicillin-streptomycin-neomycin (PSN), and the tissue centrifuged for 1 minute at 2000 rpm at room temperature. The supernatant was then removed, fresh medium was added and the tissue mechanically dissociated using increasing fine bore fire-polished Pasteur pipettes. Cell density was assessed using a haematocytometer and cells were plated in culture medium containing 10% FBS and 0.25% PSN at a density of 1-1.5×10^5 on sterile coverslips coated with 0.01% poly-D-lysine. After 4 days the culture medium was removed and replaced with fresh serum free DMEM prior to treatment with MPP+ or OPN. […]
MPP+ dose response: MPP+ was dissolved in sterile PBS and the primary cell cultures were incubated for 24 hrs with one of the following concentrations of MPP+ : 0.1, 0.5, 1, 2, 5, 10 μM MPP+ or vehicle (PBS). […] An EC50 was calculated (3.076±0.56) and a high (10 μM) or low (2 μM) MPP+ concentration was used to investigate the role of OPN in dopaminergic cell survival. […]

[2] = test system: TH positive cells in primary ventral mesencephalic cultures; test: Survival of TH positive cells in primary ventral mesencephalic cultures without MPP+ treatment; conditions: 24 hrs incubation, no toxin; listed as OPN
Protocol: as §1
(§2) Tyrosine hydroxylase (TH) immunohistochemistry: The culture medium was removed from the cells and the coverslips were fixed in 4% paraformaldehyde prior to peroxidase detection of TH using the ABC immunohistochemical method. Coverslips were mounted and examined using a Zeiss Axiophot microscope at a 50× magnification and the number of TH positive cells on each coverslip was manually counted in four fields chosen at random (total area: 8 mm^2).

[3] = test system: TH positive cells in primary ventral mesencephalic cultures; test: Survival of TH positive cells in primary ventral mesencephalic cultures with MPP+ treatment; conditions: for concentration of maximal efficacy in increasing TH positive cell survival: lowest concentration used; for effect on survival/death of TH positive cells: 24 hrs pretreatment
Protocol: Primary ventral mesencephalic cell cultures: Primary cell cultures were prepared by dissecting out the ventral mesencephalon from E14 rat foetuses. The dissected tissue was pooled and incubated with 0.1% Trypsin solution. This solution was then removed and replaced with Dulbecco's modified Eagles medium (DMEM) containing 10% foetal bovine serum (FBS) and 0.25% penicillin-streptomycin-neomycin (PSN), and the tissue centrifuged for 1 minute at 2000 rpm at room temperature. The supernatant was then removed, fresh medium was added and the tissue mechanically dissociated using increasing fine bore fire-polished Pasteur pipettes. Cell density was assessed using a haematocytometer and cells were plated in culture medium containing 10% FBS and 0.25% PSN at a density of 1-1.5×10^5 on sterile coverslips coated with 0.01% poly-D-lysine. After 4 days the culture medium was removed and replaced with fresh serum free DMEM prior to treatment with MPP+ or OPN. Each treatment was done in triplicate per experiment and each series of experiments was repeated a further 2 times to give a final n=3.
Manipulation of the OPN system: Cultures were incubated with one of the following treatments for 24 hrs prior to MPP+ administration (either 10 μM or 2 μM MPP+): OPN protein (1, 5, 10, 25, 50 & 100 ng/ml), anti-OPN antibody (26.5, 53, 265, 530 ng/ml and 1.325, 2.65 μg/ml), anti-αv or anti-β3 integrin receptor subunit antibody (0.02, 0.04, 0.2, 0.4, 1 & 2 μg/ml). Control groups received no MPP+ treatment.
as §2

Row | Compound | EC50 [1] | effect on viability of TH positive cells [2] | concentration of maximal efficacy in increasing TH positive cell survival ([3]; 2 μM MPP+) | concentration of maximal efficacy in increasing TH positive cell survival ([3]; 10 μM MPP+) | effect on survival/death of TH positive cells ([3]; then 2 μM MPP+ for 24 hrs) | effect on survival/death of TH positive cells ([3]; then 2 μM MPP+ for 24 hrs, listed as OPN) | effect on survival/death of TH positive cells ([3]; then 10 μM MPP+ for 24 hrs) | effect on survival/death of TH positive cells ([3]; then 10 μM MPP+ for 24 hrs, listed as OPN)
1 | C[n+]1ccc(-c2ccccc2)cc1 [MPP+] | 3.08 ± 0.56 µM | – | – | – | – | – | – | –
2 | OPN protein fragment: 15 amino acid fragment of rat osteopontin (SEQ ID NO: 8) containing the RGD αvβ3 integrin binding site (TVDVPDGRGDSLAYG; listed as Rattus norvegicus) | – | not found to affect the viability; also recorded: no effect | 1 ng/mL | 1 ng/mL | almost completely protected dopaminergic cells | increased TH cell survival | almost completely protected dopaminergic cells | increased survival of TH positive cells
